Reference: ChEMBL document CHEMBL3045291, “Synthesis and evaluation of new potent inhibitors of CK1 and CDK5, two kinases involved in Alzheimers disease” (Med Chem Res, 2013)

Legend:
[1] = biological target: Casein kinase 1, delta tv1 (Sus scrofa, UniProt M3VH47); assay: Inhibition of Sus scrofa (pig) casein kinase 1delta/epsilon isolated from brain using RRKHAAIGpSAYSITA and [gamma33P]ATP as substrate after 30 min by scintillation counting
[2] = biological target: Cyclin-dependent kinase 5/CDK5 activator 1 (Homo sapiens, UniProt Q00535); assay: Inhibition of human recombinant CDK5/p25 using histone H1 and [gamma33P]ATP as substrate after 30 min by scintillation counting; type: protein-complex assay
Chain of Cyclin-dependent kinase 5/CDK5 activator 1 (Q00535 whole entry): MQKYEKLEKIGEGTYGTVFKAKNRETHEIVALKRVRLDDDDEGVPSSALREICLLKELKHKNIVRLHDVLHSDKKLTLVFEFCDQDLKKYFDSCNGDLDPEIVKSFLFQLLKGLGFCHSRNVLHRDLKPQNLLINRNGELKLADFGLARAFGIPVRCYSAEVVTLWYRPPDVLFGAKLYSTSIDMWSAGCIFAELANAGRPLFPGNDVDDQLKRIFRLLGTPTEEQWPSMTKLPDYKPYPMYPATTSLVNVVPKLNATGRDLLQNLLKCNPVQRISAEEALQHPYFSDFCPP
Chain of Cyclin-dependent kinase 5/CDK5 activator 1 (Q15078 whole entry, further chain): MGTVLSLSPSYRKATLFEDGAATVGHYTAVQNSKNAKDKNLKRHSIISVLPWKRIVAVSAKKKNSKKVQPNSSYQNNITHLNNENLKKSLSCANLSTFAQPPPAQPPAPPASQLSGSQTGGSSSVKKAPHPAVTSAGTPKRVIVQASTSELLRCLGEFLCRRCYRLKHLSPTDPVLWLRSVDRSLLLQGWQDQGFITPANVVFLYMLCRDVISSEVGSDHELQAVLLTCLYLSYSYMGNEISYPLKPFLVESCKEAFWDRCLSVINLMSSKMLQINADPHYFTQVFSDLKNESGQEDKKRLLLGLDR

[3] = biological target: Cyclin-dependent kinase 2/cyclin A (Homo sapiens, UniProt P24941); assay: Inhibition of human recombinant CDK2/cyclin A using histone H1 and [gamma33P]ATP as substrate after 30 min by scintillation counting; type: protein-complex assay
[4] = biological target: Glycogen synthase kinase-3 (Sus scrofa, UniProt B2LUN4+I6LNT8); assay: Inhibition of Sus scrofa (pig) glycogen synthase kinase 3alpha/beta isolated from brain using YRRAAVPPSPSLSRHSSPHQpSEDEEE and [gamma33P]ATP as substrate after 30 min by liquid scintillation counting
[5] = biological target: Cyclin-dependent kinase 5 (Homo sapiens, UniProt Q00535); assay: Inhibition of CDK5 (unknown origin)
Chain of Cyclin-dependent kinase 5 (Q00535 whole entry): as the sequence (Q00535 whole entry) above

[6] = biological target: Dual specificity tyrosine-phosphorylation-regulated kinase 1A (Homo sapiens, UniProt Q13627); assay: Inhibition of Homo sapiens (human) recombinant GST-tagged DYRK1A expressed in Escherichia coli using KKISGRLSPIMTEQ and [gamma33P]ATP as substrate after 30 min by scintillation counting
[7] = biological target: T1, G2/mitotic-specific cyclin-B (Asterina pectinifera, UniProt P18063); assay: Inhibition of Asteroidea (starfish) Cyclin-dependent kinase 1/cyclin B isolated from oocyte using histone H1 and [gamma33P]ATP as substrate after 30 min by scintillation counting
T1 sequence (P18063 whole entry): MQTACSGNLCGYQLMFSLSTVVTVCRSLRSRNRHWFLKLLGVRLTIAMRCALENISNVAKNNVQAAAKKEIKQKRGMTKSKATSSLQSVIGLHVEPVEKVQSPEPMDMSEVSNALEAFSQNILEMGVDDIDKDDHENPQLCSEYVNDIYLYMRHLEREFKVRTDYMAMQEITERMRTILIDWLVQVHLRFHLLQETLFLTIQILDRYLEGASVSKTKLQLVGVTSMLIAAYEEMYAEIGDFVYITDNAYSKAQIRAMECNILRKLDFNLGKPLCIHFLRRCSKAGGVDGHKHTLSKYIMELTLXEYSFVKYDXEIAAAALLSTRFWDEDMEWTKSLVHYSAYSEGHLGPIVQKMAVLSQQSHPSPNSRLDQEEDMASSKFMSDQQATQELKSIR

Chain of Casein kinase 1, delta tv1 (M3VH47 whole entry): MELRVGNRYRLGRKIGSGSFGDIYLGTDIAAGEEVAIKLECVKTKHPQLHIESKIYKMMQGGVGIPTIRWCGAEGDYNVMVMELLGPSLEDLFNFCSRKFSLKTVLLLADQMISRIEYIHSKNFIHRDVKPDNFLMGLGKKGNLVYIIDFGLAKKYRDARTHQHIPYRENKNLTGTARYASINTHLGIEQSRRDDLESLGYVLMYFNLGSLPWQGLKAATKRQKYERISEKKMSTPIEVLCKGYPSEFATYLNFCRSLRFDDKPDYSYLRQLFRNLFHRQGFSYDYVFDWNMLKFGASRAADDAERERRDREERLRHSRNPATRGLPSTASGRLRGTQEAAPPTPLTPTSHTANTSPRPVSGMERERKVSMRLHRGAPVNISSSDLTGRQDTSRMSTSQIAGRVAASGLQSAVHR

CC(C)n1cnc2c(Nc3ccc(-c4cncnc4)cc3)nc(NC(C)(C)CO)nc21
IC50 [1]: 0.5 µM
IC50 [2]: 0.11 µM
IC50 [3]: 0.2 µM

CC(C)n1cnc2c(Nc3ccc(-c4cncnc4)cc3)nc(Cl)nc21
IC50 [4]: > 10 µM
IC50 [1]: 0.41 µM
IC50 [2]: 2.1 µM
IC50 [3]: 1.1 µM

CC(C)n1cnc2c(Nc3ccc(-c4cncnc4)cc3)nc(NC(CO)CO)nc21
IC50 [1]: 0.64 µM
IC50 [2]: 0.19 µM
IC50 [3]: 0.33 µM

NC1=NC(=O)/C(=C2\CCNC(=O)c3[nH]c(Br)cc32)N1 [HYMENIALDISINE]
IC50 [5]: 0.03 µM

CC(C)n1cnc2c(Nc3cccc(-c4ncccn4)c3)nc(NC(CO)CO)nc21
IC50 [1]: 0.07 µM
IC50 [2]: 0.62 µM

CC(C)n1cnc2c(Nc3cccc(-c4cncnc4)c3)nc(Cl)nc21
IC50 [4]: > 10 µM
IC50 [1]: 0.38 µM
IC50 [2]: 1 µM

CC(C)n1cnc2c(Nc3cccc(-c4cncnc4)c3)nc(NC(C)(C)CO)nc21
IC50 [1]: 0.32 µM
IC50 [2]: 0.11 µM
IC50 [3]: 0.11 µM

CC(C)n1cnc2c(Nc3cccc(-c4ncccn4)c3)nc(Cl)nc21
IC50 [6]: > 10 µM
IC50 [4]: > 10 µM
IC50 [1]: 0.06 µM
IC50 [7]: 10 µM
IC50 [2]: 1.9 µM
IC50 [3]: 1.9 µM

CC(C)n1cnc2c(Nc3cccc(-c4ncccn4)c3)nc(NC(C)(C)CO)nc21
IC50 [1]: 0.05 µM
IC50 [2]: 0.11 µM
